Measurements reported in patent US10828317B2, “Method of treating bacterial infections” (priority 2016, dated 2020).

Experiments:
[1] = system: S. aureus no. 12; assay: MIC vs S. aureus LMG 10147, MSSA; assay type: cell-based, Staphylococcus aureus; conditions: Uridine 0 μg/ml
[2] = system: S. aureus EN008; assay: MIC, Gram-positive control; assay type: cell-based, Staphylococcus aureus; conditions: combination FdUrd+trimethoprim+uridine, Table 8
[3] = system: K. pneumoniae EN010; assay: MIC, WT; assay type: cell-based, Klebsiella pneumoniae; conditions: combination FdUrd+trimethoprim+uridine, Table 8
[4] = system: K. pneumoniae EN011; assay type: cell-based, Klebsiella pneumoniae; conditions: combination FdUrd+trimethoprim+uridine, Table 8
[5] = system: E. coli EN013; assay type: cell-based, Escherichia coli; conditions: combination FdUrd+trimethoprim+uridine, Table 8
[6] = system: P. aeruginosa EN015; assay type: cell-based, Pseudomonas aeruginosa; conditions: combination FdUrd+trimethoprim+uridine, Table 8
[7] = system: A. baumannii EN016; assay: MIC, WT; assay type: cell-based, Acinetobacter baumannii; conditions: combination FdUrd+trimethoprim+uridine, Table 8
[8] = system: A. baumannii EN017; assay type: cell-based, Acinetobacter baumannii; conditions: combination FdUrd+trimethoprim+uridine, Table 8
[9] = system: E. coli EN0135; assay: MIC, ESBL (SHV-2a); assay type: cell-based; conditions: combination FdUrd+trimethoprim+uridine, Table 19
[10] = system: E. coli EN0138; assay: MIC, ESBL (CTX-M-9); assay type: cell-based; conditions: combination FdUrd+trimethoprim+uridine, Table 19
[11] = system: E. coli EN0139; assay: MIC, ESBL (CTX-M-15); assay type: cell-based; conditions: combination FdUrd+trimethoprim+uridine, Table 19
[12] = system: K. pneumoniae EN0233; assay: MIC; assay type: cell-based; conditions: combination FdUrd+trimethoprim+uridine, Table 19
[13] = system: K. pneumoniae EN0143; assay: MIC, ESBL (SHV-12); assay type: cell-based; conditions: combination FdUrd+trimethoprim+uridine, Table 19
[14] = system: K. pneumoniae EN0262; assay: MIC, ESBL (+), KPC+; assay type: cell-based; conditions: combination FdUrd+trimethoprim+uridine, Table 19 and 21
[15] = system: K. pneumoniae EN0401; assay: MIC, Carbapenemase + ESBL; assay type: cell-based; conditions: combination FdUrd+trimethoprim+uridine, Table 19
[16] = system: K. pneumoniae EN0436; assay: MIC, colistinR; assay type: cell-based; conditions: combination FdUrd+trimethoprim+uridine, Table 19
[17] = system: K. pneumoniae EN0437; assay: MIC, colistinR; assay type: cell-based; conditions: combination FdUrd+trimethoprim+uridine, Table 19
[18] = system: S. flexneri APV00906; assay: microbe, parasite or virus in culture; assay type: cell-based; conditions: combination FdUrd+trimethoprim+uridine, Table 22A
Source text: (§1) Inhibition of Heliobacter is important in view of increasing resistance and its association to gastric cancer.

[19] = system: Helicobacter pylori APV00918; assay: MIC; assay type: cell-based; conditions: combination FdUrd+trimethoprim+uridine, Table 22A
Source text: as §1

[20] = system: Helicobacter pylori ATTC43504; assay: MIC; assay type: cell-based; conditions: combination FdUrd+trimethoprim+uridine, Table 22A
Source text: as §1

[21] = system: S. aureus no. 11; assay: MIC; assay type: cell-based
[22] = system: S. aureus V86; assay: MIC; assay type: cell-based; conditions: Uridine 0 μg/ml
[23] = system: S. aureus V308; assay: MIC; assay type: cell-based
[24] = system: P. aeruginosa EN005; conditions: combination FdUrd+trimethoprim+uridine, Table 8
[25] = system: S. aureus strain no 13; assay: MIC vs S. aureus LMG 15975, MRSA; conditions: Uridine 0 μg/ml
[26] = system: E. coli strain no 2; assay: MIC vs E. coli LMG 15862, penicillin resistant; conditions: Table 26B
[27] = Iclaprim 0.008 μg/ml, Uridine 0 μg/ml
[28] = Iclaprim 0.008 μg/ml, Uridine 100 μg/ml
[29] = Iclaprim 0.03 μg/ml, Uridine 0 μg/ml
[30] = Iclaprim […], Uridine 100 μg/ml

## O=c1[nH]c(=O)n([C@H]2C[C@H](O)[C@@H](CO)O2)cc1F [FdUrd, Fluorodeoxyuridine]
[1]; Iclaprim 0.008 μg/ml
  MIC FdUrd: >4 µg/mL
[1]; Iclaprim 0.03 μg/ml
  MIC FdUrd: >4 µg/mL
[1]; Iclaprim […]
  MIC FdUrd: >4 µg/mL
[2]
  MIC: <0.008 µg/mL
[3]
  MIC: 0.5 µg/mL
[4]
  MIC: 0.064 µg/mL
[5]
  MIC: 0.016 µg/mL
[6]
  MIC: 1 µg/mL
[7]
  MIC: 4 µg/mL
[8]
  MIC: 0.5 µg/mL
[9]
  MIC: 0.25 µg/mL
[10]
  MIC: 0.25 µg/mL
[11]
  MIC: 0.5 µg/mL
[12]
  MIC: 0.5 µg/mL
[13]
  MIC: >4 µg/mL
[14]
  MIC: 2 µg/mL
[15]
  MIC: >4 µg/mL
[16]
  MIC: 0.25 µg/mL
[17]
  MIC: >4 µg/mL
[18]
  MIC: >4 µg/mL
[19]
  MIC: 0.06 µg/mL
[20]
  MIC: 0.06 µg/mL
[21]; [27]
  MIC FdUrd: >4 µg/mL
[21]; [28]
  MIC FdUrd: >4 µg/mL
[21]; [29]
  MIC FdUrd: >4 µg/mL
[21]; Iclaprim 0.03 μg/ml, Uridine 100 μg/ml
  MIC FdUrd: >4 µg/mL
[21]; Iclaprim […], Uridine 0 μg/ml
  MIC FdUrd: >4 µg/mL
[21]; [30]
  MIC FdUrd: >4 µg/mL
[22]; Iclaprim 0.008 μg/ml
  MIC FdUrd: >4 µg/mL
[22]; Iclaprim 0.03 μg/ml
  MIC FdUrd: >4 µg/mL
[22]; Iclaprim 0.06 μg/ml
  MIC FdUrd: >4 µg/mL
[22]; Iclaprim […]
  MIC FdUrd: >4 µg/mL
[23]; Iclaprim 0 μg/ml, Uridine 0 μg/ml
  MIC FdUrd: >16 µg/mL
[23]; Iclaprim 0 μg/ml, Uridine 100 μg/ml
  MIC FdUrd: >16 µg/mL
[23]; [27]
  MIC FdUrd: >4 µg/mL
[23]; [28]
  MIC FdUrd: >4 µg/mL
[23]; [29]
  MIC FdUrd: >4 µg/mL
[23]; Iclaprim 0.06 μg/ml, Uridine 0 μg/ml
  MIC FdUrd: >4 µg/mL
[23]; Iclaprim […], Uridine 0 μg/ml
  MIC FdUrd: >4 µg/mL
[23]; [30]
  MIC FdUrd: >4 µg/mL
[24]
  MIC: 0.25 µg/mL
[25]; Table 26A (isolate not given), Iclaprim 0.015
  MIC FdUrd: >0.5 µg/mL
[25]; Table 26A (isolate not given), Iclaprim 0.03
  MIC FdUrd: >0.5 µg/mL
[25]; Table 26A (isolate not given), Iclaprim 0.08
  MIC FdUrd: >0.5 µg/mL
[25]; Table 30C, Iclaprim 0.008 μg/ml
  MIC FdUrd: >4 µg/mL
[25]; Table 30C, Iclaprim 0.03 μg/ml
  MIC FdUrd: >4 µg/mL
[25]; Table 30C, Iclaprim […]
  MIC FdUrd: >4 µg/mL
[26]; Iclaprim 0, Uridine 0 μg/ml
  MIC FdUrd: >16 µg/mL
[26]; Iclaprim 0, Uridine 100 μg/ml
  MIC FdUrd: >16 µg/mL
[26]; Iclaprim 0, Uridine 300 μg/ml
  MIC FdUrd: >16 µg/mL
[26]; Iclaprim 0, Uridine 500 μg/ml
  MIC FdUrd: >16 µg/mL
[26]; Iclaprim 0.1, Uridine 0 μg/ml
  MIC FdUrd: >8 µg/mL
[26]; Iclaprim 0.1, Uridine 100 μg/ml
  MIC FdUrd: >8 µg/mL
[26]; Iclaprim 0.2, Uridine 0 μg/ml
  MIC FdUrd: >8 µg/mL
